In patent US10517889B2, “Modulators of SMAD7 expression” (Ionis Pharmaceuticals, Inc., priority 2017, dated 2019):

Columns and labels:
[1] = Hematology assays after subcutaneous administration in beagle dogs (Example 8); type: in vivo; conditions: 30 mg/kg subcutaneous days 1, 3, 5, 8, 15, 22, 29
Procedure: (§1) There were 4 animals per group.
Blood samples were collected from the cephalic vein or saphenous vein of each animal. About 0.5 mL of blood samples was put into tubes containing the potassium salt of EDTA. Blood obtained from all dog groups was measured using an ADVIA2120i hematology analyzer for measurements of the various blood cells, as well as other hematology markers.

mouse Smad7 mRNA = assay: Pharmacology: mouse Smad7 mRNA expression in liver, kidney, duodenum, ileum and colon after subcutaneous administration in CD-1 mice (Example 6); type: in vivo; conditions: 50 mg/kg subcutaneous twice weekly for 7 weeks, normalized to GAPDH
In short: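 Male CD-1 mice, 8-9 weeks old, got 50 mg/kg oligonucleotide subcutaneously twice weekly (100 mg/kg/week) for 7 weeks, with PBS controls; n=4 per group. At necropsy, Smad7 mRNA in liver, kidney, duodenum, ileum and colon was measured by RT-PCR (probe set HTS7555), normalized to GAPDH; one-way ANOVA with Dunnett's test.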

[2] = tested on: human peripheral blood mononuclear cells (PBMCs); assay: Human PBMC activation assay, cytokine levels (IL-10, IL-6, MCP-1, TNF-α) in supernatant after 24 hours (Example 9); conditions: human PBMC supernatant after 24 hours
[3] = Organ weights after oral gavage in beagle dogs (Example 12); conditions: 200 mg oral gavage for 4 weeks, day 30
Procedure: Groups of 24-25 week old male beagle dogs were administered 200 mg Ionis human SMAD7 oligonucleotide by oral gavage once a week for 4 weeks. There were 4 animals per group. A control group of dogs received oral administration of distilled water. Dogs were sacrificed on day 30 approximately 48 hours after the final dose and organs and plasma were harvested for further analysis.

human SMAD7 mRNA = assay: Dose-dependent inhibition of human SMAD7 mRNA expression in A431 cells, oligonucleotide added without transfection (Example 5, Study 1); type: cell-based; conditions: approximately 48 hours; for IC50: SMAD7 mRNA
In short: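 A431 cells dosed with antisense oligonucleotide at 0.08–20.00 μM by free uptake immediately after plating, 48 h at 37° C. SMAD7 mRNA quantified by qRT-PCR (primer probe set RTS5062), normalised to RiboGreen total RNA. Values are % inhibition versus untreated cells.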

[4] = Blood chemistry markers after oral gavage in CD-1 mice (Example 7); type: in vivo; conditions: 500 mg/kg oral gavage once daily for 4 weeks, day 30
Procedure: The objective of this study was to evaluate the tolerability and pharmacodynamics of select Ionis human SMAD7 antisense oligonucleotides in CD-1 mice following 4 weeks of treatment. The mice were administered oligonucleotides by oral gavage.
Groups of 7-8 week old male CD-1 mice were given an oral gavage dose once daily for 4 weeks of 500 mg/kg of Ionis SMAD7 oligonucleotides. Each group contained 8 mice. One group of male CD-1 mice was administered saline by oral gavage daily.
Levels of transaminases, albumin, and BUN were measured using a Toshiba 200FR NEO chemistry analyzer (Toshiba Co., Japan).

[5] = Oligonucleotide concentration in tissues by LC-MS/MS after subcutaneous administration in beagle dogs (Example 8); type: in vivo; conditions: 30 mg/kg subcutaneous, 48 hours after the last dose
Procedure: as §1
Oligonucleotide concentrations of both ION 830025 and ION 798781 were detected in various tissues by LC-MS/MS analysis. The results are presented below, expressed as μg/g tissue. The data was collected 48 hours after the last dose.

798781 (CGTAAGATTCACAGCA; 3-10-3 cEt gapmer, further chemistry not given here) [compound 798781]
Basophils [1]: 0.5%
Eosinophils [1]: 2.7%
Hematocrit [1]: 48%
Hemoglobin [1]: 16.2 g/dL
Lymphocytes [1]: 34%
MCH [1]: 22.3 pg
MCHC [1]: 33.6 g/dL
MCV [1]: 67 fL
Monocytes [1]: 6.5%
Neutrophils [1]: 56%
PLT [1]: 191 ^3/μL
RBC [1]: 7.3 ^6/L
Reticulocytes [1]: 0.6%
WBC [1]: 7.3 ^3/μL
% inhibition of Smad7 mRNA expression (compared to control), Kidney (mouse Smad7 mRNA): 18%
% inhibition of Smad7 mRNA expression (compared to control), Liver (mouse Smad7 mRNA): 28%
Levels of IL-6 ([2]; 0.0128 μM oligonucleotide): 3.4 pg/mL
Levels of IL-10 ([2]; 0.0128 μM oligonucleotide): 2.2 pg/mL
Levels of MCP-1 ([2]; 0.0128 μM oligonucleotide): 332.9 pg/mL
Levels of TNF-α ([2]; 0.0128 μM oligonucleotide): 2.6 pg/mL
Levels of IL-6 ([2]; 0.064 μM oligonucleotide): 4.9 pg/mL
Levels of IL-10 ([2]; 0.064 μM oligonucleotide): 2.0 pg/mL
Levels of MCP-1 ([2]; 0.064 μM oligonucleotide): 387.0 pg/mL
Levels of TNF-α ([2]; 0.064 μM oligonucleotide): 3.3 pg/mL
Levels of IL-6 ([2]; 0.32 μM oligonucleotide): 6.9 pg/mL
Levels of IL-10 ([2]; 0.32 μM oligonucleotide): 2.3 pg/mL
Levels of MCP-1 ([2]; 0.32 μM oligonucleotide): 483.1 pg/mL
Levels of TNF-α ([2]; 0.32 μM oligonucleotide): 3.8 pg/mL
Levels of IL-6 ([2]; 1.6 μM oligonucleotide): 12.3 pg/mL
Levels of IL-10 ([2]; 1.6 μM oligonucleotide): 3.9 pg/mL
Levels of MCP-1 ([2]; 1.6 μM oligonucleotide): 597.2 pg/mL
Levels of TNF-α ([2]; 1.6 μM oligonucleotide): 5.1 pg/mL
Levels of IL-6 ([2]; 8 μM oligonucleotide): 18.1 pg/mL
Levels of IL-10 ([2]; 8 μM oligonucleotide): 2.9 pg/mL
Levels of MCP-1 ([2]; 8 μM oligonucleotide): 582.7 pg/mL
Levels of TNF-α ([2]; 8 μM oligonucleotide): 6.5 pg/mL
Levels of IL-6 ([2]; 40 μM oligonucleotide): 20.7 pg/mL
Levels of IL-10 ([2]; 40 μM oligonucleotide): 1.4 pg/mL
Levels of MCP-1 ([2]; 40 μM oligonucleotide): 565.8 pg/mL
Levels of TNF-α ([2]; 40 μM oligonucleotide): 6.3 pg/mL
Levels of IL-6 ([2]; 200 μM oligonucleotide): 28.0 pg/mL
Levels of IL-10 ([2]; 200 μM oligonucleotide): 0.6 pg/mL
Levels of MCP-1 ([2]; 200 μM oligonucleotide): 61.3 pg/mL
Levels of TNF-α ([2]; 200 μM oligonucleotide): 4.0 pg/mL
Kidney weight (% of control) [3]: 86 % of control
Liver weight (% of control) [3]: 91 % of control
Spleen weight (% of control) [3]: 102 % of control
% inhibition of SMAD7 mRNA expression (human SMAD7 mRNA; 0.08 μM): 23%
% inhibition of SMAD7 mRNA expression (human SMAD7 mRNA; 0.25 μM): 34%
% inhibition of SMAD7 mRNA expression (human SMAD7 mRNA; 0.74 μM): 41%
% inhibition of SMAD7 mRNA expression (human SMAD7 mRNA; 2.22 μM): 41%
% inhibition of SMAD7 mRNA expression (human SMAD7 mRNA; 6.67 μM): 57%
% inhibition of SMAD7 mRNA expression (human SMAD7 mRNA; 20.00 μM): 62%
IC50 (human SMAD7 mRNA): 3.6 µM
ALT [4]: 43 IU/L
AST [4]: 73 IU/L
Albumin [4]: 3.2 g/dL
BUN [4]: 25 mg/dL
Bilirubin [4]: 0.3 mg/dL
Full length oligonucleotide, Distal colon [5]: 68 µg/g
Full length oligonucleotide, Duodenum [5]: 97 µg/g
Full length oligonucleotide, Ileum [5]: 177 µg/g
Full length oligonucleotide, Kidney [5]: 3300 µg/g
Full length oligonucleotide, Liver [5]: 964 µg/g
Full length oligonucleotide, Proximal colon [5]: 73 µg/g

830121 (AGAATCAAGCCCTGGC; 3-10-3 cEt gapmer, further chemistry not given here) [compound 830121]
Basophils [1]: 0.8%
Eosinophils [1]: 2.5%
Hematocrit [1]: 56%
Hemoglobin [1]: 18.5 g/dL
Lymphocytes [1]: 30%
MCH [1]: 21.7 pg
MCHC [1]: 32.9 g/dL
MCV [1]: 66 fL
Monocytes [1]: 7.7%
Neutrophils [1]: 59%
PLT [1]: 249 ^3/μL
RBC [1]: 8.5 ^6/L
Reticulocytes [1]: 0.5%
WBC [1]: 8.2 ^3/μL
% inhibition of Smad7 mRNA expression (compared to control), Kidney (mouse Smad7 mRNA): 0%
% inhibition of Smad7 mRNA expression (compared to control), Liver (mouse Smad7 mRNA): 24%
Levels of IL-6 ([2]; 0.0128 μM oligonucleotide): 4.1 pg/mL
Levels of IL-10 ([2]; 0.0128 μM oligonucleotide): 2.0 pg/mL
Levels of MCP-1 ([2]; 0.0128 μM oligonucleotide): 324.5 pg/mL
Levels of TNF-α ([2]; 0.0128 μM oligonucleotide): 3.0 pg/mL
Levels of IL-6 ([2]; 0.064 μM oligonucleotide): 4.9 pg/mL
Levels of IL-10 ([2]; 0.064 μM oligonucleotide): 1.3 pg/mL
Levels of MCP-1 ([2]; 0.064 μM oligonucleotide): 370.4 pg/mL
Levels of TNF-α ([2]; 0.064 μM oligonucleotide): 3.5 pg/mL
Levels of IL-6 ([2]; 0.32 μM oligonucleotide): 4.4 pg/mL
Levels of IL-10 ([2]; 0.32 μM oligonucleotide): 1.3 pg/mL
Levels of MCP-1 ([2]; 0.32 μM oligonucleotide): 336.4 pg/mL
Levels of TNF-α ([2]; 0.32 μM oligonucleotide): 3.1 pg/mL
Levels of IL-6 ([2]; 1.6 μM oligonucleotide): 5.4 pg/mL
Levels of IL-10 ([2]; 1.6 μM oligonucleotide): 3.1 pg/mL
Levels of MCP-1 ([2]; 1.6 μM oligonucleotide): 501.8 pg/mL
Levels of TNF-α ([2]; 1.6 μM oligonucleotide): 3.6 pg/mL
Levels of IL-6 ([2]; 8 μM oligonucleotide): 7.5 pg/mL
Levels of IL-10 ([2]; 8 μM oligonucleotide): 3.7 pg/mL
Levels of MCP-1 ([2]; 8 μM oligonucleotide): 717.1 pg/mL
Levels of TNF-α ([2]; 8 μM oligonucleotide): 4.8 pg/mL
Levels of IL-6 ([2]; 40 μM oligonucleotide): 14.3 pg/mL
Levels of IL-10 ([2]; 40 μM oligonucleotide): 2.2 pg/mL
Levels of MCP-1 ([2]; 40 μM oligonucleotide): 1225.2 pg/mL
Levels of TNF-α ([2]; 40 μM oligonucleotide): 9.4 pg/mL
Levels of IL-6 ([2]; 200 μM oligonucleotide): 35.2 pg/mL
Levels of IL-10 ([2]; 200 μM oligonucleotide): 1.4 pg/mL
Levels of MCP-1 ([2]; 200 μM oligonucleotide): 411.0 pg/mL
Levels of TNF-α ([2]; 200 μM oligonucleotide): 14.2 pg/mL
% inhibition of SMAD7 mRNA expression (human SMAD7 mRNA; 0.08 μM): 11%
% inhibition of SMAD7 mRNA expression (human SMAD7 mRNA; 0.25 μM): 18%
% inhibition of SMAD7 mRNA expression (human SMAD7 mRNA; 0.74 μM): 27%
% inhibition of SMAD7 mRNA expression (human SMAD7 mRNA; 2.22 μM): 21%
% inhibition of SMAD7 mRNA expression (human SMAD7 mRNA; 6.67 μM): 35%
% inhibition of SMAD7 mRNA expression (human SMAD7 mRNA; 20.00 μM): 44%
IC50 (human SMAD7 mRNA): > 20 µM
ALT [4]: 45 IU/L
AST [4]: 75 IU/L
Albumin [4]: 3.3 g/dL
BUN [4]: 24 mg/dL
Bilirubin [4]: 0.2 mg/dL
Full length oligonucleotide, Distal colon [5]: 20 µg/g
Full length oligonucleotide, Duodenum [5]: 26 µg/g
Full length oligonucleotide, Ileum [5]: 26 µg/g
Full length oligonucleotide, Kidney [5]: 1468 µg/g
Full length oligonucleotide, Liver [5]: 443 µg/g
Full length oligonucleotide, Proximal colon [5]: 19 µg/g
